By inhibition is commonly meant the share of the control response that was lost under treatment.

These results are taken from patent publication US4365989A, “2-Thiocyanomethylthio-4,4-dialkyl-5-substituted-thiazoline fungicides” (Chevron Research Company, priority 1982, dated 1982).

One test relates to Soybean. The test is described as follows: Pre-emergent herbicidal test, Soybean. It counts as in vivo. Conditions: Glycine max, 504 h; pre-emergence; 33 micrograms/cm^2; 3 weeks; read-out: Herbicidal Activity Pre-Emergence % Control Soybean. The procedure: (§1) An acetone solution of the test compound was prepared by mixing 750 mg of the compound, 220 mg of a nonionic surfactant and 25 ml of acetone. This solution was added to approximately 125 ml of water containing 156 mg of surfactant.
(§2) Seeds of the test vegetation were planted in a pot of […] and the test solution was sprayed uniformly onto the soil surface at a dose of 33 micrograms/cm^2. The pot was watered and placed in a greenhouse. […] At the end of this period, the herbicidal effectiveness of the compound was rated based on the physiological observations. A 0-to-100 scale was used, 0 representing no phytotoxicity, 100 representing complete kill.

The test system of test [1] is Pigweed (Amaranthus retraflexus). The test can be described thus: Pre-emergent herbicidal test, Pigweed. It counts as in vivo. Conditions: 504 h, pre-emergence, 33 micrograms/cm^2, 3 weeks. The procedure:
as §1, §2

The test system of a further test is Lemna minor. The test is described as follows: Aquatic weeds control, Lemna. It counts as in vivo. The note with it: 7 to 10 days, read-out: Algicidal Activity % Control Lemna. The method, then:
(§3) Representative compounds of the invention were tested as aquatic herbicides and algicides by the following method. The weed test species were Lemna minor, Elodea canadensis and the algae used was Spirulina maxima.
(§4) An acetone solution of the test compound and a small amount of an alkylarylpolyoxyethylene glycol-containing surfactant was prepared. This solution was mixed with a nutrient solution in quantity sufficient to give a concentration of 2 ppm. Eight oz. plastic cups were filled with 150 ml of this solution. A sample of the test, Lemna and Elodea, was added together to each cup. Forty ml of Spirulina culture with the 2 ppm treatment was placed in 11/2 oz plastic cups (#4 glass vials used after June 9, 1980). The containers were then placed in an illuminated environment maintained at a temperature of about 20° C. for incubation. The containers were observed periodically for growth (as compared to an untreated check). The effectiveness of the test compound was determined based on a final observation of growth after 7 to 10 days. The results of the test on a 0-to-100 basis--0 indicating no effectiveness and 100 indicating complete effectiveness--are reported in Table IV.

Test [2] concerns Alternaria solani conidia. The test can be described thus: Tomato Early Blight control. It counts as in vivo. The note with it: 250 ppm; tomato Bonny Best seedlings. The method, then:
Compounds of the invention were tested for the control of the tomato Early Blight organism, Alternaria solani conidia. Tomato (variety Bonny Best) seedlings of 6 to 7 weeks old were used. The tomato plants were sprayed with a 250 ppm solution of the test compound in an acetone-and-water solution containing a small amount of a nonionic emulsifier. The sprayed plants were inoculated one day later with the organism, placed in the environmental chamber and incubated at 66° to 68° F. and 100% relative humidity for 24 hours. Following the incubation, the plants were maintained in a greenhouse for about 12 days. Percent diseases control was based on the percent disease development on untreated check plants.

Test [3] concerns Watergrass (Ethinochloa crusgalli). The test is described as follows: Pre-emergent herbicidal test, Watergrass. It counts as in vivo. The note with it: 504 h; pre-emergence; 33 micrograms/cm^2; 3 weeks. The procedure: as §1, §2
The test system of test [4] is Mustard (Brassica arvensis). The test is described as follows: Pre-emergent herbicidal test, Mustard. It counts as in vivo. The note with it: 504 h, pre-emergence, 33 micrograms/cm^2, 3 weeks. The procedure: as §1, §2
The subject of another test is Botrytis Cineria. The test is described as follows: Mycelial inhibition, Botrytis. The class given is cell-based. The note with it: 24 hours, relative to standard DIFOLATAN
The method, then: (§5) A number of the compounds of the present invention were evaluated for in-vitro fungicidal effectiveness by means of a mycelial inhibition test. This test is designed to measure the fungitoxic activity of fungicidal chemicals in terms of their degree of inhibition of mycelium growth. Each compound to be tested was dissolved in acetone to 500 ppm concentration. Paper strips were infused with the particular mycelium growth by covering the paper with a potato dextrose broth culture of mycelial suspension. The papers were then placed on potato dextrose agar plates and sprayed by means of a microsprayer with the fungicidal solution. The treated paper strips were incubated at 25° C. and the data is taken after 24 hours. Fungicidal activities are measured by a zone of inhibited mycelial growth from the center of the paper strip. The effectiveness of the compounds tested for fungicidal activity is reported in Table IIa for those compounds which were effective in inhibiting mycelial growth. The activity is reported in terms of [formula]

In test [5] the test system is Mustard (Brassica arvensis). The test can be described thus: Post-emergent herbicidal test, Mustard. It counts as in vivo. The note with it: 504 h, post-emergence, 33 micrograms/cm^2, 3 weeks.
A further test has as its system Plasmopara viticola. The test can be described thus: Grape Downy Mildew control, detached grape leaves. It counts as in vivo. Conditions: in Vitis vinifera, Vitis vinifera Emperor detached leaves, read-out: % Control Grape D.M. The procedure: The compounds of the invention were tested for the control of the grape downy mildew organism Plasmopara viticola. Detached leaves, between 70 and 85 mm in diameter, of 7-week old Vitis vinifera cultivar Emperor grape seedlings were used as hosts. The leaves were sprayed with a 250 ppm solution of the test compound in acetone. The sprayed leaves were dried, inoculated with a spore suspension of the organism, placed in a humid environmental chamber and incubated at 66° to 68° F. and about 100% relative humidity. After incubation for two days, the plants were then held in a greenhouse seven to nine days; then the amount of disease control was determined. The percent disease control provided by a given gest compound was based on the percent disease reduction relative to untreated check plants.

Another test relates to Phytophthora infestans. The test can be described thus: whole plant or invertebrate. It counts as in vivo. Conditions: in Solanum lycopersicum, read-out: % Control Tom. L. Bl.
Another test deals with Elodea canadensis. The test can be described thus: Aquatic weeds control, Elodea. The note with it: 7 to 10 days, read-out: Algicidal Activity % Control Elodea. It counts as in vivo. The method, then: as §3, §4
Test [6] deals with Watergrass (Ethinochloa crusgalli). The test can be described thus: Post-emergent herbicidal test, Watergrass. The class given is in vivo. Conditions: 504 h; post-emergence; 33 micrograms/cm^2; 3 weeks.
The next test has as its system Rhizoctonia solani. The test is described as follows: Mycelial inhibition, Rhizoctonia. It counts as cell-based. The note with it: 24 hours, relative to standard DIFOLATAN, read-out: Mycelial inhibition, % Standard, Rhizoc. The procedure: as §5

For the compound `CC1(C)N=C(SCSC#N)SC1=CSc1ccc(Cl)cc1` [Compound 1, 2-thiocyanomethylthio-4,4-dimethyl-5-(4-chlorophenylthio)methylenethiazoline], the plant injury at 33 µg/cm2 in the test on Soybean was determined as 0%. The pest or weed control at 33 µg/cm2 in [1], in [3], in test [4], in test [5] and in test [6] was 0% each time. Also, the activity at 2 ppm in the test on Lemna minor and in the test with Elodea canadensis was 0% throughout. Further, the “% Control Tom. E. Bl.” value in [2] amounted to 47%. Moreover, the inhibition at 500 ppm with Botrytis Cineria and with Rhizoctonia solani was 0% throughout. The pest or weed control at 250 ppm with Plasmopara viticola is 100%; in the test on Phytophthora infestans, 21%.
Consider `CC1(C)N=C(SCSC#N)SC1=C(Cl)Cl` [Compound 2, 2-thiocyanomethylthio-4,4-dimethyl-5-dichloromethylenethiazoline], for which, in the test with Soybean, the plant injury at 33 µg/cm2 is 0%. The pest or weed control at 33 µg/cm2 in test [1] came to 0%; in test [3] it was 0%; in test [4] it was 0%; in [5], 63%; in test [6], 45%. The figures for the activity at 2 ppm with Lemna minor and in the test on Elodea canadensis were 50% and 70%, respectively. For the same compound, in [2], the “% Control Tom. E. Bl.” value amounted to 67%. In addition, the inhibition at 500 ppm is 32% with Botrytis Cineria and 71% with Rhizoctonia solani. The pest or weed control at 250 ppm in the test on Plasmopara viticola was determined as 88%; in the test on Phytophthora infestans, 0%.
For the compound `CCC1(CC)N=C(SCSC#N)SC1=CBr` [Compound 5, 2-thiocyanomethylthio-4,4-diethyl-5-bromo-methylenethiazoline], the plant injury at 33 µg/cm2 in the test on Soybean turned out to be 0%. In addition, the pest or weed control at 33 µg/cm2 came out at 0% in test [1]; 0% in test [3]; 0% in test [4]; 35% in test [5]; 58% in [6]. Further, the activity at 2 ppm in the test with Lemna minor worked out at 0%; in the test on Elodea canadensis, 55%. Also, in test [2], the “% Control Tom. E. Bl.” value is on record as 0%. In addition, the inhibition at 500 ppm was determined as 0% with Botrytis Cineria and 82% in the test on Rhizoctonia solani. The pest or weed control at 250 ppm with Plasmopara viticola is 100%; in the test on Phytophthora infestans, 20%.
Regarding `C=C1SC(SCSC#N)=NC1(CC)CC` [Compound 6, 2-thiocyanomethylthio-4,4-diethyl-5-methylenethiazoline], the plant injury at 33 µg/cm2 in the test on Soybean worked out at 30%. For the same compound, the pest or weed control at 33 µg/cm2 in [1] came out at 73%; in [3], 0%; in test [4] it was 58%; in test [5], 35%; in [6], 35%. For the same compound, the activity at 2 ppm with Lemna minor and with Elodea canadensis was 0% throughout. The “% Control Tom. E. Bl.” value in test [2] is recorded as 0%. For the same compound, the inhibition at 500 ppm with Botrytis Cineria worked out at 30%; in the test with Rhizoctonia solani, 89%. For the same compound, the pest or weed control at 250 ppm in the test with Plasmopara viticola and with Phytophthora infestans was 0% throughout.
As to `C=C1SC(SCSC#N)=NC1(C)C` [Compound 7, 2-Thiocyanomethylthio-4,4-dimethyl-5-methylenethiazoline], the plant injury at 33 µg/cm2 in the test with Soybean is 45%. In addition, the pest or weed control at 33 µg/cm2 turned out to be 50% in [1]; 0% in test [3]; 0% in [4]; 50% in test [5]; 22% in [6]. Also, the activity at 2 ppm is 90% in the test with Lemna minor and 85% with Elodea canadensis. For the same compound, the “% Control Tom. E. Bl.” value in [2] was determined as 71%. Besides, the inhibition at 500 ppm with Botrytis Cineria was determined as 82%; with Rhizoctonia solani it was 39%. The figures for the pest or weed control at 250 ppm in the test with Plasmopara viticola and in the test on Phytophthora infestans were 50% and 75%, respectively.
As to `C=C1SC(SCSC#N)=NC12CCCCC2` [Compound 8], the plant injury at 33 µg/cm2 with Soybean was determined as 0%. Also, the pest or weed control at 33 µg/cm2 is 0% in [1]; 0% in test [3]; 0% in test [4]; 25% in test [5]; 38% in test [6]. Besides, the results for the activity at 2 ppm in the test on Lemna minor and in the test on Elodea canadensis were 60% and 80%, respectively. Moreover, the “% Control Tom. E. Bl.” value in test [2] worked out at 0%. For the same compound, the inhibition at 500 ppm in the test on Botrytis Cineria worked out at 26%; in the test on Rhizoctonia solani, 71%. For the same compound, the pest or weed control at 250 ppm with Plasmopara viticola is 100%; with Phytophthora infestans, 29%.
